In patent publication US20060275229A1, “Skin care active complex and methods of using same” (priority 2005, published 2006):

Tests used:
[1] = Inhibition of UV-induced lipid peroxidation of phospholipid liposomes (antioxidant test, malonaldehyde); format: biochemical; conditions: lecithin liposomes, UV light for 4 hours
Procedure: Unsaturated fatty acids are present in the phospholipids of cell membranes. Their oxidation compromises membrane integrity and also leads to the generation of breakdown products that are damaging to other important cellular components such as proteins and nucleic acids. Since the skin is exposed to large doses of UV light from the sun, UV-induced peroxidation is a significant route of oxidant damage. […] The left column of Table 2 lists the compounds that were tested, while the right column lists each corresponding compound the effective concentration that inhibits oxidation by 50%. The assay was performed by irradiating a suspension of lecithin liposomes with UV light for 4 hours in the absence of or in the presence of the different compounds listed in the table. […] The rate of lipid oxidation was calculated from the increase in malonaldehyde content.

[2] = target: T1, human neutrophil elastase (Homo sapiens, UniProt P08246); test: Neutrophil elastase inhibition, chromogenic substrate assay; format: biochemical
T1 construct: purchased Athens Research and Technology, GA
T1 sequence (P08246 30-267): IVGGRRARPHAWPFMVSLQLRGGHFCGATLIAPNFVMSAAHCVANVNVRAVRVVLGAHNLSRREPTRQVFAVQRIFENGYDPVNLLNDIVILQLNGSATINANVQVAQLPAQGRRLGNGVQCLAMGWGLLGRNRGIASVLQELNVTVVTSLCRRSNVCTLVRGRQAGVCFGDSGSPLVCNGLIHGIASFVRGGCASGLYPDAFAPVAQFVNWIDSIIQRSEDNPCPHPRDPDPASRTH
Text: In combination, these three enzymes are capable of extensively degrading all of the protein components of the extracellular matrix (ECM) including collagens I and III (the major collagen types in the skin), elastin and the various glycoprotein components (e.g., fibronectin). Elevated expression of these proteases is triggered by inflammatory stimuli such as UV light, and their activity results in ECM damage that is a major component of skin aging.
Ursolic acid is a powerful inhibitor of elastase activity. The inhibition activity of ursolic acid was tested by incubating it with a human neutrophil elastase sample (obtained from Athens Research and Technology, GA) for 10 minutes with a chromogenic substrate, given below. The change in optical density of the substrate at 405 nm was recorded one reading per minute at room temperature reaction mixtures in a 96-well plate. The reaction mixture contains 300 µg/ml methoxysuccinyl-Ala-Ala-Pro-Val-pNA (chromogenic substrate); […] human neutrophil elastase at concentrations in the range 0.55%-3.3%; 70 mM Tris-HCl (pH 8); and 200 mM NaCl.
The % inhibition is calculated relative to the no-sample control.

**Q.** For O=C1O[C@H]([C@@H](O)CO)C(O)=C1O [Vitamin C (Ascorbic Acid), Ascorbic Acid], which “EC50 (concentration that inhibits oxidation by 50%)” value [1] is on record?
**A.** 0.002 % w/w

**Q.** Which “Elastase Inhibition (%)” value ([2]; concentration 0.0004 %) does the source give for C[C@H]1[C@H](C)CC[C@]2(C(=O)O)CC[C@]3(C)C(=CC[C@@H]4[C@@]5(C)CC[C@H](O)C(C)(C)[C@@H]5CC[C@]43C)[C@H]12 [Ursolic Acid, Ursolic acid] here?
**A.** 26%

**Q.** What about the “Elastase Inhibition (%)” value ([2]; concentration 0.0008 %) of the same compound?
**A.** 44%

**Q.** And the “Elastase Inhibition (%)” value ([2]; concentration 0.0012 %)?
**A.** 58%

**Q.** What about the “Elastase Inhibition (%)” value ([2]; concentration 0.002 %) of the same compound?
**A.** 72%

**Q.** And the “Elastase Inhibition (%)” value ([2]; concentration 0.004 %)?
**A.** 81%

**Q.** What about the “Elastase Inhibition (%)” value ([2]; concentration 0.006 %) of the same compound?
**A.** 84%

**Q.** And the “Elastase Inhibition (%)” value ([2]; concentration 0.01 %)?
**A.** 86%

**Q.** And the “IC50 value for elastase inhibition” value ([2]; human neutrophil elastase, chromogenic substrate, Example 4)?
**A.** about 0.0008%

**Q.** With CC(=O)Oc1c(C)c(C)c2c(c1C)CCC(C)(CCC[C@H](C)CCC[C@H](C)CCCC(C)C)O2 (some centres unmarked) [Vitamin E acetate] as the compound, how does the “EC50 (concentration that inhibits oxidation by 50%)” value [1] read?
**A.** 0.022 % w/w

**Q.** With O=C(O[C@@H]1Cc2c(O)cc(O)cc2O[C@@H]1c1cc(O)c(O)c(O)c1)c1cc(O)c(O)c(O)c1 [Epigallocatechin gallate (EGCG), Epigallocatechin gallate] as the compound, how does the “EC50 (concentration that inhibits oxidation by 50%)” value [1] read?
**A.** 0.0003 % w/w
